Measured values reported in patent publication US10168342B2, “Lipid probes and uses thereof” (THE SCRIPPS RESEARCH INSTITUTE, priority 2015, dated 2019).
Like-named read-outs stand apart in the source and are kept apart here.

Assays:
[1] = target: AEA-DA lipid probe targets in Neuro2a cells (Mus musculus, UniProt O35129)
[2] = target: T1, AEA-DA lipid probe targets in Neuro2a cells (Mus musculus, UniProt O70503); settings: for SILAC ratio, HSD17B12 (Q53GQ0): Neuro2a cells, AEA-DA probe
T1 sequence (O70503 1-312): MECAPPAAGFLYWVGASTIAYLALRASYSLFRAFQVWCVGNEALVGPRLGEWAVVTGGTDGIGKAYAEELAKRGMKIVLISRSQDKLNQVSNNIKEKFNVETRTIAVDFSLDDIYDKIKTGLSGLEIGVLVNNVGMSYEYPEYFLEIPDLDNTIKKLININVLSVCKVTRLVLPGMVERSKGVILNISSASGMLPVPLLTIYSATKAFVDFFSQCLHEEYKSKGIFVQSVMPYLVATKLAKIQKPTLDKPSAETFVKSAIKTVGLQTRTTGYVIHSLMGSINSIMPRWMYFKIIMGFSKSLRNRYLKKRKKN

[3] = target: T2, AEA-DA lipid probe targets in Neuro2a cells (Mus musculus, UniProt Q8BH59)
T2 sequence (Q8BH59 1-677): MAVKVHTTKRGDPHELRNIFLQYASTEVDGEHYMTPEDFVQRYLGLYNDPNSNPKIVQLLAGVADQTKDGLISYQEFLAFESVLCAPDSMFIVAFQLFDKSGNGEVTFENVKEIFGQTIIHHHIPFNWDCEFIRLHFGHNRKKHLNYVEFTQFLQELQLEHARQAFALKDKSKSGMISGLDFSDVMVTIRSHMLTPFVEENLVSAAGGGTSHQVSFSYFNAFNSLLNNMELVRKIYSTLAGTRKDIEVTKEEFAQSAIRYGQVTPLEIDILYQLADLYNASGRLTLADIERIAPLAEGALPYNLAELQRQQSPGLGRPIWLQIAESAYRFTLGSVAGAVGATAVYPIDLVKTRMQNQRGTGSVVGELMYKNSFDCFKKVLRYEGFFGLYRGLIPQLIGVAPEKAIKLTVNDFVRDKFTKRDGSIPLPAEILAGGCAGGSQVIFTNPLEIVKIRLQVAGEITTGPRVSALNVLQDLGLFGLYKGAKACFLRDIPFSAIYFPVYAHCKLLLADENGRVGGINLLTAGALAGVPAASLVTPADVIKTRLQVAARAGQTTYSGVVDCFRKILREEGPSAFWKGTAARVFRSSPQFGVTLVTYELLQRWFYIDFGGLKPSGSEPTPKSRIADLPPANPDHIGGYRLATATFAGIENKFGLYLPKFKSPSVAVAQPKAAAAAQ

[4] = target: T3, AEA-DA lipid probe targets in Neuro2a cells (Mus musculus, UniProt Q8BKE6)
T3 sequence (Q8BKE6 1-462): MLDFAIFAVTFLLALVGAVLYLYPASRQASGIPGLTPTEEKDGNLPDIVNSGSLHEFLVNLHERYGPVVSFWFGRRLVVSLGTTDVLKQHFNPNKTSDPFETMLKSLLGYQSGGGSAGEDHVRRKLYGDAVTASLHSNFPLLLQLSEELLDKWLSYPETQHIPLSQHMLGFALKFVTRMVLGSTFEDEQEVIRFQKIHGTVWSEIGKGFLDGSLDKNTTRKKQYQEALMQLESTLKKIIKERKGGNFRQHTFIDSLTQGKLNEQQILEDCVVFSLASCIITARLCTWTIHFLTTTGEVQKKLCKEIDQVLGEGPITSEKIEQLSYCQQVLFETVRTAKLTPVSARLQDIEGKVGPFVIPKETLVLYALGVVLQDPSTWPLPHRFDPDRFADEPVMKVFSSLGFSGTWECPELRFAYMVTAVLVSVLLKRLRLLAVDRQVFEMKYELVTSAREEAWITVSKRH

[5] = target: T4, AEA-DA lipid probe targets in Neuro2a cells (Mus musculus, UniProt Q8K411)
T4 sequence (Q8K411 16-1036): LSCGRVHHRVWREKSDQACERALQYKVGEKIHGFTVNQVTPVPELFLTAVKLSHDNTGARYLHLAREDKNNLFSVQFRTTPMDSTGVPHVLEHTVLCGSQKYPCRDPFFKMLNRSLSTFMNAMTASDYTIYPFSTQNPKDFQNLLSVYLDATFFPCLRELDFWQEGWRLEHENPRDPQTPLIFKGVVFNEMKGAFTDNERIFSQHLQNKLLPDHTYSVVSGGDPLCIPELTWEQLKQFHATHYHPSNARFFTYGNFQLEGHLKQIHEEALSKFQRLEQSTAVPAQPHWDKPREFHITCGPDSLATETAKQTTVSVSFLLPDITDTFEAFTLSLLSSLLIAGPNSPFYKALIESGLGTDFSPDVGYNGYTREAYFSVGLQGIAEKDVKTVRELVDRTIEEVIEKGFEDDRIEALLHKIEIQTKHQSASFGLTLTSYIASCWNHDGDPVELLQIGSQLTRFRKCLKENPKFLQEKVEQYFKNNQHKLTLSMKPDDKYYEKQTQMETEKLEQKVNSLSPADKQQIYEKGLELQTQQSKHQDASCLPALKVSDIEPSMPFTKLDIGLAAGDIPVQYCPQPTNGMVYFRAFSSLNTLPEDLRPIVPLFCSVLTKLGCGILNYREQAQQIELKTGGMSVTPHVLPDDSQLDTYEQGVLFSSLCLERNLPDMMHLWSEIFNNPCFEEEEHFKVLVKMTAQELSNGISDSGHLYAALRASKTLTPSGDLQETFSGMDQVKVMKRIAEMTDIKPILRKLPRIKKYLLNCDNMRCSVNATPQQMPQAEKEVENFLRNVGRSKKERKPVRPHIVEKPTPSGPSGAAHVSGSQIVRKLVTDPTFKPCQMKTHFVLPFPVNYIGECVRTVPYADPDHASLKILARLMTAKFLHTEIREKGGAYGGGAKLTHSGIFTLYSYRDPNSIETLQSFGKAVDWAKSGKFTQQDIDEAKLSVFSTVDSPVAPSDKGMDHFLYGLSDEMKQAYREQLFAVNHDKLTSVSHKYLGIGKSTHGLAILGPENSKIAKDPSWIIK

[6] = target: AEA-DA lipid probe targets in Neuro2a cells (Mus musculus, UniProt Q99KQ4)
AEA-DA lipid probe targets in Neuro2a cells (Mus musculus, UniProt Q99KQ4), sequence (Q99KQ4 whole entry): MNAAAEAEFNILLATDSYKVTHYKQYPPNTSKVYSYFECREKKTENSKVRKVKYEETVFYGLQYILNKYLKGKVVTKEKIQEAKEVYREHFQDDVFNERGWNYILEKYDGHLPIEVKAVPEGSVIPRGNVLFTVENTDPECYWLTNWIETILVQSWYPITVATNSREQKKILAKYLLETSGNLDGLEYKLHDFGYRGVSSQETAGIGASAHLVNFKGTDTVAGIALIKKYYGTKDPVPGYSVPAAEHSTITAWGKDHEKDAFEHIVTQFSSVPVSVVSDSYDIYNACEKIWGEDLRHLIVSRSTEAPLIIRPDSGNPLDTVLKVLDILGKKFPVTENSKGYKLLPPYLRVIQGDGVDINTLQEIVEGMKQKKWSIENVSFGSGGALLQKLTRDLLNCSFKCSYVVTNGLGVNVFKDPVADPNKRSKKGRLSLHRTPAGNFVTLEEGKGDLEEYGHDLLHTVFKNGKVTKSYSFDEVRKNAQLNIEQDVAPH

AEA-DA lipid probe targets in Neuro2a cells (Mus musculus, UniProt O35129), sequence (O35129 whole entry): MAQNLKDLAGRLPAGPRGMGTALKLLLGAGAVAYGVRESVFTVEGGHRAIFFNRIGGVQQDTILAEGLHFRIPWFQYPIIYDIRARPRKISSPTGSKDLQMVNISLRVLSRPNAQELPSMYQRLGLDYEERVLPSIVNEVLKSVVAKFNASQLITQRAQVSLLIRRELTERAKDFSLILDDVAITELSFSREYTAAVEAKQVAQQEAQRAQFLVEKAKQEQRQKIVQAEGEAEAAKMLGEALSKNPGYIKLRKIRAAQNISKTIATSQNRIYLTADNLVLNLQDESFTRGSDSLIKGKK

SMILES | SILAC ratio Phb2 ([1]; competitor 25 μM) | SILAC ratio, HSD17B12 (Q53GQ0) ([2]; competitor 25 μM) | SILAC ratio, Hsd17b12 ([2]; competitor 25 μM) | SILAC ratio Slc25a12 ([3]; competitor 25 μM) | SILAC ratio, Cyp20a1 ([4]; competitor 25 μM) | SILAC ratio, Pitrm1 ([5]; competitor 25 μM) | SILAC ratio, Nampt ([6]; competitor 25 μM) | also measured
O=C(/C=C/c1cccnc1)NCCCCC1CCN(C(=O)c2ccccc2)CC1 [FK-866, reference compound] | 1.1 | 1.7 | 1.7 | 1.1 | 1.1 | 1.4 | 16.4 | 
CCCCC/C=C\C/C=C\C/C=C\C/C=C\CCCC(=O)NCCO [AEA, anandamide, reference compound] |  |  |  |  |  |  |  | SILAC ratio Phb2 ([1]; competitor 200 μM): 1.2; SILAC ratio, HSD17B12 (Q53GQ0) ([2]; competitor 200 μM): 2.2; SILAC ratio, Hsd17b12 ([2]; competitor 200 μM): 2.2; SILAC ratio Slc25a12 ([3]; competitor 200 μM): 1.1; SILAC ratio, Pitrm1 ([5]; competitor 200 μM): 2.1; SILAC ratio, Nampt ([6]; competitor 200 μM): 1.1
CN1CCN(C(=O)c2c(-c3ccccc3)c3cc([N+](=O)[O-])ccc3n2C)CC1 [KML110, (1-Methyl-5-nitro-3-phenyl-1H-indol-2-yl)(4-methylpiperazin-1-yl)methanone] | 1.3 |  | 1.7 | 1.1 | 1.4 | 2.0 | 2.0 | 
C=CCN(C)CCCCCCOc1ccc(C(=O)c2ccc(Br)cc2)c(F)c1 [Ro 48-8071, reference compound] | 0.9 | 0.9 | 0.9 | 1.0 | 1.1 | 1.0 | 0.9 | 
CN1CCN(C(=O)c2[nH]c3ccc([N+](=O)[O-])cc3c2-c2ccccc2)CC1 [MJN228, (4-Methylpiperazin-1-yl)(5-nitro-3-phenyl-1H-indol-2-yl)methanone] | 1.2 | 1.6 | 1.6 | 1.0 | 1.3 | 1.9 | 1.2 | SILAC ratio Phb2 ([1]; competitor 10 μM): 1.3; SILAC ratio Phb2 ([1]; competitor 50 μM): 1.4; SILAC ratio Phb2 ([1]; competitor 100 μM): 1.5; SILAC ratio, Hsd17b12 ([2]; competitor 10 μM): 1.2; SILAC ratio, Hsd17b12 ([2]; competitor 50 μM): 1.7; SILAC ratio, Hsd17b12 ([2]; competitor 100 μM): 2.3; SILAC ratio Slc25a12 ([3]; competitor 10 μM): 1.0; SILAC ratio Slc25a12 ([3]; competitor 50 μM): 0.9; SILAC ratio Slc25a12 ([3]; competitor 100 μM): 1.0; SILAC ratio, Cyp20a1 ([4]; competitor 10 μM): 1.2; SILAC ratio, Cyp20a1 ([4]; competitor 50 μM): 1.2; SILAC ratio, Cyp20a1 ([4]; competitor 100 μM): 1.6; SILAC ratio, Pitrm1 ([5]; competitor 10 μM): 1.6; SILAC ratio, Pitrm1 ([5]; competitor 50 μM): 2.2; SILAC ratio, Pitrm1 ([5]; competitor 100 μM): 3.4; SILAC ratio, Nampt ([6]; competitor 50 μM): 1.0
